Source: patent US12617803B2, “Condensed isoxazoline derivatives and their use as herbicides” (BASF SE, priority 2020, dated 2026)

Experiments:
Assay type in all cases: in vivo
[1] = system: AMARE (Amaranthus retroflexus); test: greenhouse pre-emergence herbicidal test; conditions: 0.125 kg/ha, scale from 0 to 100
Excerpt: (§1) The seeds of the test plants were sown separately for each species. For the pre-emergence treatment, the active ingredients, which had been suspended or emulsified in water, were applied directly after sowing by means of finely distributing nozzles. The containers were irrigated gently to promote germination and growth and subsequently covered with transparent plastic hoods until the test plants had rooted. This cover caused uniform germination of the test plants, unless this had been impaired by the active ingredients. For the post-emergence treatment, the test plants were first grown to a height of 3 to 15 cm, depending on the plant habit, and only then treated with the active ingredients which had been suspended or emulsified in water. For this purpose, the test plants were either sown directly and grown in the same containers, or they were first grown separately as seedlings and transplanted into the test containers a few days prior to treatment. Depending on the species, the test plants were kept at 10-25° C. or 20-35° C., respectively. The test period extended over 2 to 4 weeks. During this time, the test plants were tended, and their response to the individual treatments was evaluated. Evaluation was carried out using a scale from 0 to 100. 100 means no emergence of the test plants, or complete destruction of at least the aerial moieties, and 0 means no damage, or normal course of growth. A good herbicidal activity is given at values of 70 to 90 and a very good herbicidal activity is given at values of 90 to 100. The test plants used in the greenhouse experiments were of the following species: [table]

[2] = system: APESV (Apera spica-venti); test: greenhouse pre-emergence herbicidal test; conditions: scale from 0 to 100, read-out: herbicidal activity against APESV; for pest or weed control at 125 g/ha: pre-emergence, 0.125 kg/ha; for pest or weed control at 250 g/ha: pre-emergence, 0,250 kg/ha
Excerpt: as §1

[3] = system: ALOMY (Alopercurus myosuroides); test: greenhouse post-emergence herbicidal test; conditions: 0.125 kg/ha, scale from 0 to 100
Excerpt: as §1

[4] = system: AMARE (Amaranthus retroflexus); test: greenhouse post-emergence herbicidal test; conditions: scale from 0 to 100
Excerpt: as §1

AVEFA (Avena fatua) = test: greenhouse post-emergence herbicidal test; conditions: scale from 0 to 100, read-out: herbicidal activity against AVEFA; for pest or weed control at 125 g/ha: 0.125 kg/ha; for pest or weed control at 250 g/ha: 0.250 kg/ha; for pest or weed control at 630 g/ha: 0.63 kg/ha
Excerpt: as §1

SETFA (Setaria faberi) = test: greenhouse pre-emergence herbicidal test; conditions: scale from 0 to 100
Excerpt: as §1

[5] = system: ECHCG (Echinocloa crus-galli); test: greenhouse pre-emergence herbicidal test; conditions: pre-emergence, 0,250 kg/ha, scale from 0 to 100
Excerpt: as §1

[6] = system: ABUTH (Abutilon theophrasti); test: greenhouse post-emergence herbicidal test; conditions: 0.500 kg/ha, scale from 0 to 100
Excerpt: as §1

SETVI (Setaria viridis) = test: greenhouse post-emergence herbicidal test; conditions: scale from 0 to 100
Excerpt: as §1

[7] = system: ECHCG (Echinocloa crus-galli); test: greenhouse post-emergence herbicidal test; conditions: 0.63 kg/ha, scale from 0 to 100
Excerpt: as §1

[8] = system: POLCO (Fallopia convolvulus); test: greenhouse post-emergence herbicidal test; conditions: 0.63 kg/ha, scale from 0 to 100
Excerpt: as §1

Which “herbicidal activity against AMARE” value [1] does the source give for `COC(=O)[C@@H]1C=C[C@H](NC(=O)C23CCCC2C(c2cc(Cl)cc(Cl)c2)=NO3)C1` (some centres unmarked) [I1] here?
The value was “very good (a very good herbicidal activity is given at values of 90 to 100)”.

What about the pest or weed control at 125 g/ha [2] of the same compound?
The pest or weed control at 125 g/ha was 90 to 100%.

And the “herbicidal activity against ALOMY” value [3]?
The value was “good (A good herbicidal activity is given at values of 70 to 90)”.

What about the “herbicidal activity against AMARE” value ([4]; 0.125 kg/ha) of the same compound?
The value was “very good (a very good herbicidal activity is given at values of 90 to 100)”.

And the pest or weed control at 125 g/ha (AVEFA (Avena fatua))?
The pest or weed control at 125 g/ha was 70 to 90%.

What does the source list for `COC(=O)CC[C@H](C)NC(=O)C12CCCC1C(c1cc(Cl)cc(Cl)c1)=NO2` (some centres unmarked) [I2]?
pest or weed control at 125 g/ha [2]: 70 to 90%; herbicidal activity against ALOMY [3]: very good (a very good herbicidal activity is given at values of 90 to 100); herbicidal activity against AMARE ([4]; 0.125 kg/ha): good (A good herbicidal activity is given at values of 70 to 90); pest or weed control at 125 g/ha (AVEFA (Avena fatua)): 90 to 100%

What does the source list for `COC(=O)[C@@H]1C=C[C@H](NC(=O)C23NCCC2C(c2cc(Cl)cc(Cl)c2)=NO3)C1` (stereo partly drawn) [I10, methyl (1S,4R)-4-[3-(3,5-dichlorophenyl)-3aH,4H,5H,6H-pyrrolo[3,2-d][1,2]oxazole-6a-amido]cyclopent-2-ene-1-carboxylate]?
pest or weed control at 250 g/ha [2]: 70 to 90%; pest or weed control at 250 g/ha (AVEFA (Avena fatua)): 90 to 100%

Which “herbicidal activity against SEFTA” value (SETFA (Setaria faberi); pre-emergence, 0.125 kg/ha) does the source give for `COC(=O)[C@@H]1C=C[C@H](NC(=O)C23ON=C(c4cc(Cl)cc(Cl)c4)C2CCC3(C)C)C1` (some centres unmarked) [I12] here?
Its value is “good (A good herbicidal activity is given at values of 70 to 90)”.

How did the pest or weed control at 250 g/ha [2] turn out when `COC(=O)[C@@H]1C=C[C@H](NC(=O)C23ON=C(c4cc(Cl)cc(Cl)c4)C2CCS3)C1` (stereo partly drawn) [I13, methyl (1S,4R)-4-[[3-(3,5-dichlorophenyl)-4,5-dihydro-3aH-thieno[3,2-d]isoxazole-6a-carbonyl]amino]cyclopent-2-ene-1-carboxylate] was run?
Its pest or weed control at 250 g/ha is 90 to 100%.

And the “herbicidal activity against ECHCG” value [5]?
The value was “very good (a very good herbicidal activity is given at values of 90 to 100)”.

And the pest or weed control at 250 g/ha (AVEFA (Avena fatua))?
The pest or weed control at 250 g/ha was 90 to 100%.

With `COC(=O)CC[C@H](C)NC(=O)C12ON=C(c3cc(F)cc(F)c3)C1CCS2` (some centres unmarked) [I15] as the compound, how does the pest or weed control at 500 g/ha ([2]; pre-emergence, 0,500 kg/ha) read?
Its pest or weed control at 500 g/ha is 70 to 90%.

And the “herbicidal activity against ABUTH” value [6]?
Its value is “good (A good herbicidal activity is given at values of 70 to 90)”.

And the pest or weed control at 500 g/ha (AVEFA (Avena fatua); 0.500 kg/ha)?
Its pest or weed control at 500 g/ha is 90 to 100%.

And the “herbicidal activity against SETVI” value (SETVI (Setaria viridis); 0.500 kg/ha)?
Its value is “very good (a very good herbicidal activity is given at values of 90 to 100)”.

For `COC(=O)CC[C@H](C)NC(=O)C12CC1C(c1cc(F)cc(F)c1)=NO2` (stereo partly drawn) [I16, methyl (4S)-4-[[4-(3,5-difluorophenyl)-2-oxa-3-azabicyclo[3.1.0]hex-3-ene-1-carbonyl]amino]pentanoate], which pest or weed control at 250 g/ha [2] is on record?
Its pest or weed control at 250 g/ha is 70 to 90%.

And the pest or weed control at 250 g/ha (AVEFA (Avena fatua))?
Its pest or weed control at 250 g/ha is 90 to 100%.

How did the pest or weed control at 250 g/ha [2] turn out when `COC(=O)C1C=C[C@H](NC(=O)C23CC2C(c2cc(Cl)cc(Cl)c2)=NO3)C1` (some centres unmarked) [I17] was run?
The pest or weed control at 250 g/ha was 90 to 100%.

And the pest or weed control at 250 g/ha (AVEFA (Avena fatua))?
The pest or weed control at 250 g/ha was 90 to 100%.

Which pest or weed control at 250 g/ha [2] does the source give for `COC(=O)[C@@H]1C=C[C@H](NC(=O)C23C=CCC2C(c2cc(F)cc(F)c2)=NO3)C1` (stereo partly drawn) [I19, methyl (1S,4R)-4-[[3-(3,5-difluorophenyl)-3a,4-dihydrocyclopenta[d]isoxazole-6a-carbonyl]amino]cyclopent-2-ene-1-carboxylate] here?
The pest or weed control at 250 g/ha was 90 to 100%.

What about the “herbicidal activity against SETFA” value (SETFA (Setaria faberi); pre-emergence, 0,250 kg/ha) of the same compound?
The value was “very good (a very good herbicidal activity is given at values of 90 to 100)”.

What about the pest or weed control at 250 g/ha (AVEFA (Avena fatua)) of the same compound?
The pest or weed control at 250 g/ha was 90 to 100%.

Which pest or weed control at 630 g/ha (AVEFA (Avena fatua)) does the source give for `COC(=O)[C@H]1C[C@@H](NC(=O)C23CCC2C(c2cc(Cl)cc(Cl)c2)=NO3)CO1` (some centres unmarked) [I20] here?
Its pest or weed control at 630 g/ha is 90 to 100%.

And the “herbicidal activity against ECHCG” value [7]?
The value was “good (A good herbicidal activity is given at values of 70 to 90)”.

What about the “herbicidal activity against SETVI” value (SETVI (Setaria viridis); 0.63 kg/ha) of the same compound?
The value was “very good (a very good herbicidal activity is given at values of 90 to 100)”.

`COC(=O)[C@H]1CC[C@H](NC(=O)C23CCC2C(c2cc(Cl)cc(Cl)c2)=NO3)C1` (some centres unmarked) [I21] was tested. Which “herbicidal activity against AMARE” value ([4]; 0.63 kg/ha) did it give?
Its value is “very good (a very good herbicidal activity is given at values of 90 to 100)”.

And the pest or weed control at 630 g/ha (AVEFA (Avena fatua))?
The pest or weed control at 630 g/ha was 70 to 90%.

What about the “herbicidal activity against POLCO” value [8] of the same compound?
Its value is “good (A good herbicidal activity is given at values of 70 to 90)”.
